Reference: patent US9409917B2, “Heterocyclic amide derivatives as P2X7 receptor antagonists” (ACTELION PHARMACEUTICALS LTD., priority 2012, dated 2016)
Like-named read-outs stand apart in the source and are kept apart here.

Target: human recombinant P2X7 receptor (Homo sapiens (Human), UniProt Q99572)
Test: YO-PRO assay: P2X7 receptor antagonistic activity (ATP-induced YO-PRO-1 uptake, FLIPR)
[1] = read-out: IC50 [nM], antagonistic activities with respect to the P2X7 receptor

Chain of human recombinant P2X7 receptor (Q99572 whole entry): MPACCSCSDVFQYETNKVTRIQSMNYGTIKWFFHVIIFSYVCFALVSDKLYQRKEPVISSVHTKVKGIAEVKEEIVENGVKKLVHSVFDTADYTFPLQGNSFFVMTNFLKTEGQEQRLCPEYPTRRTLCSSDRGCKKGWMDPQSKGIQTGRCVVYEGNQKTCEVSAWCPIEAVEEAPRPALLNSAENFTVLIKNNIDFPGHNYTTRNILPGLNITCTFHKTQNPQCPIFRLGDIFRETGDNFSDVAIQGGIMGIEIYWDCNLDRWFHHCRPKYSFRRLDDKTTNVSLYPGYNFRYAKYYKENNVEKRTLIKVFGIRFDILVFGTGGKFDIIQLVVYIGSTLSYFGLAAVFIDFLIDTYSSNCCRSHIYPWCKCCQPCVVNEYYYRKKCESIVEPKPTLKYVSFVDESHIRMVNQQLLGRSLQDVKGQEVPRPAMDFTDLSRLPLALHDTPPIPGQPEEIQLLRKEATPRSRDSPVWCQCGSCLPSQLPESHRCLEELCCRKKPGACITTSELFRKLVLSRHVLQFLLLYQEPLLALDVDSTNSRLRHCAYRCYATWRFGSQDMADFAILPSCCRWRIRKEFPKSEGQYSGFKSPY

Structure (SMILES)	IC50	also measured
O=C(N[C@H](CO)C1CCCCC1)[C@H]1CCOc2ncccc21 (mixture of isomers) [Example 8, (S)-3,4-Dihydro-2H-pyrano[2,3-b]pyridine-4-carboxylic acid ((S)-1-cyclohexyl-2-hydroxy-ethyl)-amide and (R)-3,4-Dihydro-2H-pyrano[2,3-b]pyridine-4-carboxylic acid ((S)-1-cyclohexyl-2-hydroxy-ethyl)-amide]		IC50 [1]: 127 nM
O=C(N[C@H](CO)c1ccc(Cl)cc1Cl)[C@H]1CCOc2ncccc21 (mixture of isomers) [Example 9, (S)-3,4-Dihydro-2H-pyrano[2,3-b]pyridine-4-carboxylic acid [(S)-1-(2,4-dichloro-phenyl)-2-hydroxy-ethyl]-amide and (R)-3,4-Dihydro-2H-pyrano[2,3-b]pyridine-4-carboxylic acid [(S)-1-(2,4-dichloro-phenyl)-2-hydroxy-ethyl]-amide]		IC50 (read-out: IC50 [nM], antagonistic activities with respect to the P2X7 receptor, HEK-293 cells expressing human recombinant P2X7 receptor, YO-PRO-1 fluorescence, ATP 250 μM, 90 minutes, highest concentration 10 μM): 70.8 nM
O=C(NCc1ccc(Cl)cc1Cl)C1COc2ncccc21 (racemic) [Example 5, rac-2,3-Dihydro-furo[2,3-b]pyridine-3-carboxylic acid 2,4-dichloro-benzylamide]	59.2 nM	
O=C(NCC1(O)CCCCC1)C1CCOc2ncccc21 (racemic) [Example 10, rac-3,4-Dihydro-2H-pyrano[2,3-b]pyridine-4-carboxylic acid (1-hydroxy-cyclohexylmethyl)-amide]	3170 nM	
Cc1cc(Cl)cc(Cl)c1CNC(=O)C1(F)COc2ncccc21 (racemic) [Example 11, rac-3-Fluoro-2,3-dihydro-furo[2,3-b]pyridine-3-carboxylic acid 2,4-dichloro-6-methyl-benzylamide]	4.8 nM	
Cc1cc(Cl)cc(Cl)c1CNC(=O)C1(F)CCOc2ncccc21 (racemic) [Example 12, rac-4-Fluoro-3,4-dihydro-2H-pyrano[2,3-b]pyridine-4-carboxylic acid 2,4-dichloro-6-methyl-benzylamide]	3.1 nM	
O=C(NCc1c(F)cc(Cl)cc1Cl)C1COc2ncccc21 (racemic) [Example 15, rac-2,3-Dihydro-furo[2,3-b]pyridine-3-carboxylic acid 2,4-dichloro-6-fluoro-benzylamide]	66.8 nM	
O=C(NCc1cccc(C(F)(F)F)c1Cl)C1COc2ncccc21 (racemic) [Example 16, rac-2,3-Dihydro-furo[2,3-b]pyridine-3-carboxylic acid 2-chloro-3-trifluoromethyl-benzylamide]	12.6 nM	
O=C(NCc1cccc(Cl)c1Cl)C1(F)COc2ncccc21 (racemic) [Example 20, rac-3-Fluoro-2,3-dihydro-furo[2,3-b]pyridine-3-carboxylic acid 2,3-dichloro-benzylamide]	67.9 nM	
O=C(NCc1c(Cl)cc(Cl)cc1C1CC1)C1COc2ncccc21 (racemic) [Example 21, rac-2,3-Dihydro-furo[2,3-b]pyridine-3-carboxylic acid 2,4-dichloro-6-cyclopropyl-benzylamide]	12.9 nM	
CCc1cc(Cl)cc(Cl)c1CNC(=O)C1COc2ncccc21 (racemic) [Example 22, rac-2,3-Dihydro-furo[2,3-b]pyridine-3-carboxylic acid 2,4-dichloro-6-ethyl-benzylamide]	1.5 nM	
C=Cc1cc(Cl)cc(Cl)c1CNC(=O)C1COc2ncccc21 (racemic) [Example 23, rac-2,3-Dihydro-furo[2,3-b]pyridine-3-carboxylic acid 2,4-dichloro-6-vinyl-benzylamide]	12.2 nM	
COc1cc(Cl)cc(Cl)c1CNC(=O)C1COc2ncccc21 (racemic) [Example 26, rac-2,3-Dihydro-furo[2,3-b]pyridine-3-carboxylic acid 2,4-dichloro-6-methoxy-benzylamide]	25.6 nM	
Cc1c(Cl)cccc1CNC(=O)C1CCOc2ncccc21 (racemic) [Example 31, rac-3,4-Dihydro-2H-pyrano[2,3-b]pyridine-4-carboxylic acid 3-chloro-2-methyl-benzylamide]	16 nM	
O=C(NCc1ccc(F)cc1Cl)C1CCOc2ncccc21 (racemic) [Example 32, rac-3,4-Dihydro-2H-pyrano[2,3-b]pyridine-4-carboxylic acid 2-chloro-4-fluoro-benzylamide]	25 nM	
O=C(NCc1ccc(Oc2ccccc2)cc1)C1CCOc2ncccc21 (racemic) [Example 33, rac-3,4-Dihydro-2H-pyrano[2,3-b]pyridine-4-carboxylic acid 4-phenoxy-benzylamide]	255 nM	
O=C(NCc1cccc(Cl)c1Cl)C1CCOc2ncccc21 (racemic) [Example 34, rac-3,4-Dihydro-2H-pyrano[2,3-b]pyridine-4-carboxylic acid 2,3-dichloro-benzylamide]	10.7 nM	
O=C(NCc1ccc(Cl)cc1)C1CCOc2ncccc21 (racemic) [Example 35, rac-3,4-Dihydro-2H-pyrano[2,3-b]pyridine-4-carboxylic acid 4-chloro-benzylamide]	475 nM	
O=C(NCc1ccc(C(F)(F)F)cc1)C1CCOc2ncccc21 (racemic) [Example 36, rac-3,4-Dihydro-2H-pyrano[2,3-b]pyridine-4-carboxylic acid 4-trifluoromethyl-benzylamide]	334 nM	

Structure (SMILES)	IC50	also measured
O=C(NCCc1ccc(Cl)cc1Cl)C1CCOc2ncccc21 (racemic) [Example 38, rac-3,4-Dihydro-2H-pyrano[2,3-b]pyridine-4-carboxylic acid [2-(2,4-dichloro-phenyl)-ethyl]-amide]	67.1 nM	
O=C(NCc1ccc(Cl)cc1Cl)C1CCOc2ncccc21 (racemic) [Example 39, rac-3,4-Dihydro-2H-pyrano[2,3-b]pyridine-4-carboxylic acid 2,4-dichloro-benzylamide]	11.8 nM	
O=C(NCc1cccc(C(F)(F)F)c1Cl)C1CCOc2ncccc21 (racemic) [Example 40, rac-3,4-Dihydro-2H-pyrano[2,3-b]pyridine-4-carboxylic acid 2-chloro-3-trifluoromethyl-benzylamide]	2.7 nM	
Cc1cc(Cl)cc(Cl)c1CNC(=O)C1CCOc2c1ccc[n+]2[O-] (racemic) [Example 41, rac-8-Oxy-3,4-dihydro-2H-pyrano[2,3-b]pyridine-4-carboxylic acid 2,4-dichloro-6-methyl-benzylamide]		IC50 [1]: 16.3 nM
Cc1c(Cl)cccc1CNC(=O)C1COc2ncccc21 (racemic) [Example 42, rac-2,3-Dihydro-furo[2,3-b]pyridine-3-carboxylic acid 3-chloro-2-methyl-benzylamide]	46.9 nM	
O=C(NCc1ccc(F)cc1Cl)C1COc2ncccc21 (racemic) [Example 43, rac-2,3-Dihydro-furo[2,3-b]pyridine-3-carboxylic acid 2-chloro-4-fluoro-benzylamide]	86.8 nM	
O=C(NCc1ccc(Oc2ccccc2)cc1)C1COc2ncccc21 (racemic) [Example 44, rac-2,3-Dihydro-furo[2,3-b]pyridine-3-carboxylic acid 4-phenoxy-benzylamide]	1120 nM	
O=C(NCc1cccc(Cl)c1Cl)C1COc2ncccc21 (racemic) [Example 45, rac-2,3-Dihydro-furo[2,3-b]pyridine-3-carboxylic acid 2,3-dichloro-benzylamide]	37.2 nM	
O=C(NCc1ccc(Cl)cc1)C1COc2ncccc21 (racemic) [Example 46, rac-2,3-Dihydro-furo[2,3-b]pyridine-3-carboxylic acid 4-chloro-benzylamide]	795 nM	
CN(Cc1ccc(Cl)cc1)C(=O)C1COc2ncccc21 (racemic) [Example 48, rac-2,3-Dihydro-furo[2,3-b]pyridine-3-carboxylic acid (4-chloro-benzyl)-methyl-amide]	1090 nM	
O=C(NCCc1ccc(Cl)cc1Cl)C1COc2ncccc21 (racemic) [Example 49, rac-2,3-Dihydro-furo[2,3-b]pyridine-3-carboxylic acid [2-(2,4-dichloro-phenyl)-ethyl]-amide]	157 nM	
O=C(NCc1c(Cl)cc(Cl)cc1OCCO)C1COc2ncccc21 (racemic) [Example 50, rac-2,3-Dihydro-furo[2,3-b]pyridine-3-carboxylic acid 2,4-dichloro-6-(2-hydroxy-ethoxy)-benzylamide]	54.6 nM	
O=C(NCc1c(Cl)cc(Cl)cc1CO)C1CCOc2ncccc21 (racemic) [Example 51, rac-3,4-Dihydro-2H-pyrano[2,3-b]pyridine-4-carboxylic acid 2,4-dichloro-6-hydroxymethyl-benzylamide]	5.6 nM	
O=C(NCc1ccc(OC(F)(F)F)c(F)c1)C1CCOc2ncccc21 (racemic) [Example 53, rac-3,4-Dihydro-2H-pyrano[2,3-b]pyridine-4-carboxylic acid 3-fluoro-4-trifluoromethoxy-benzylamide]	1190 nM	
O=C(NCC1(c2ccccc2)CCCCC1)C1CCOc2ncccc21 (racemic) [Example 54, rac-3,4-Dihydro-2H-pyrano[2,3-b]pyridine-4-carboxylic acid (1-phenyl-cyclohexylmethyl)-amide]	25.8 nM	
O=C(NCc1cccc(C(F)(F)F)c1Cl)C1(F)COc2ncccc21 (racemic) [Example 55, rac-3-Fluoro-2,3-dihydro-furo[2,3-b]pyridine-3-carboxylic acid 2-chloro-3-trifluoromethyl-benzylamide]	41.6 nM	
O=C(NC1(c2ccc(Cl)cc2Cl)CC1)C1CCOc2ncccc21 (racemic) [Example 58, rac-3,4-Dihydro-2H-pyrano[2,3-b]pyridine-4-carboxylic acid [1-(2,4-dichloro-phenyl)-cyclopropyl]-amide]	2700 nM	
N#Cc1ccc(CNC(=O)C2COc3ncccc32)c(Cl)c1 (racemic) [Example 61, rac-2,3-Dihydro-furo[2,3-b]pyridine-3-carboxylic acid 2-chloro-4-cyano-benzylamide]	389 nM	
NC(=O)C1(NC(=O)C2COc3ncccc32)CCCC1 (racemic) [Example 63, rac-2,3-Dihydro-furo[2,3-b]pyridine-3-carboxylic acid (1-carbamoyl-cyclopentyl)-amide]	3850 nM	
